Consider three compounds from EPA's ToxRefDB 2.

Broadly, the LOAEL is the lowest tested level that showed an adverse finding. The term NOAEL denotes the highest tested level that showed no adverse finding.

Series [1] relates to rat. The following applies: Combined chronic toxicity/carcinogenicity, sprague dawley, Oral, Feed, dose end: 113 week, group: systemic.
Series [2] relates to mouse. The conditions noted are these: Multigenerational reproductive toxicity study; cd1; Oral; Feed; dose end: 1 generation; group: offspring; systemic / in life observation / body weight / offspring (pup) weight.
Series [3] relates to rat. The following applies: Prenatal developmental toxicity study; other; Oral; Water; dose end: 19 GD; group: maternal; systemic / in life observation / water consumption / water consumption.
Series [4] relates to rat. The conditions noted are these: Prenatal developmental toxicity study; other; Oral; Gavage/Intubation; dose end: 19 GD; group: maternal; systemic / in life observation / food consumption / food consumption.
The test system of series [5] is mouse. The conditions noted are these: Combined chronic toxicity/carcinogenicity, cd1, Oral, Feed, dose end: 104 week, group: systemic.
The subject of series [6] is rat. The conditions noted are these: Developmental neurotoxicity study; other; Oral; Water; dose end: 20 PND; group: cannot be grouped; systemic / in life observation / body weight / body weight gain + systemic / in life observation / food consumption / food consumption + ….
Series [7] has as its system mouse. The conditions noted are these: Developmental neurotoxicity study; cd1; Injection; Subcutaneous; dose end: 35 PND; group: cannot be grouped; developmental / developmental landmark / eye opening / eye opening + systemic / in life observation / clinical signs / [other] + systemic / ….
Series [8] concerns mouse. The following applies: Prenatal developmental toxicity study, cd1, Oral, Gavage/Intubation, dose end: 16 GD.
For series [9], the system named is mouse. The following applies: Chronic toxicity, b6c3f1, Oral, Feed, dose end: 2 year, group: systemic.
Series [10] has as its system mouse. The following applies: Subchronic oral toxicity in rodents, cd1, Feed, dose end: 14 week, group: systemic.
The test system of series [11] is mouse. The conditions noted are these: Subchronic oral toxicity in rodents, b6c3f1, Feed, dose end: 14 week, group: systemic, systemic / organ weight / liver / absolute + systemic / organ weight / liver / relative to body weight + systemic / pathology microscopic / ….
Series [12] deals with rat. The following applies: Combined chronic toxicity/carcinogenicity, fischer, Oral, Feed, dose end: 2 year, group: systemic.
Series [13] relates to mouse. The conditions noted are these: Chronic toxicity; cd1; Oral; Feed; dose end: 57 week; group: systemic; systemic / pathology microscopic / heart / amyloid deposition + systemic / pathology microscopic / liver / eosinophilic focus + systemic / ….
The mark [14] stands for this setting: systemic / in life observation / body weight / body weight + systemic / in life observation / clinical signs / feces, discoloration + ….
Setting [15] is: systemic / in life observation / clinical signs / fur (altered appearance).
[16] abbreviates: systemic / in life observation / clinical signs / fur (altered appearance) + systemic / in life observation / clinical signs / skin ….
The mark [17] stands for this setting: group: developmental, developmental / developmental malformation / bone / supernumerary + developmental / developmental malformation / general / hemorrhage + ….
[18] abbreviates: group: maternal, reproductive / reproductive performance / resorptions / resorptions + systemic / in life observation / clinical signs / abnormal movements….
The mark [19] stands for this setting: systemic / pathology microscopic / liver / hypertrophy + systemic / pathology microscopic / thyroid gland / hyperplasia.
[20] abbreviates: systemic / pathology microscopic / liver / hypertrophy + systemic / pathology microscopic / thyroid gland / hyperplasia + systemic / in life….
Where [21] appears, read: systemic / in life observation / clinical signs / grip strength + systemic / organ weight / liver / absolute + systemic / organ weight / ….
The mark [22] stands for this setting: systemic / organ weight / liver / absolute + systemic / pathology microscopic / liver / hypertrophy.
Setting [23] is: systemic / in life observation / body weight / body weight + systemic / pathology microscopic / kidney / adenoma + systemic / in life ….
The mark [24] stands for this setting: systemic / pathology microscopic / kidney / nephropathy.

Turning to `O=C([O-])c1[nH]n(-c2ccc(S(=O)(=O)[O-])cc2)c(=O)c1N=Nc1ccc(S(=O)(=O)[O-])cc1.[Na+].[Na+].[Na+]` [FD&C Yellow 5], the LOAEL in the series on rat [1] (setting [14]) was > 2640 mg/kg/day; in the series on mouse [2], > 771 mg/kg/day; in the series with rat [3], > 1060 mg/kg/day; with rat [4], > 1000 mg/kg/day; in the series on mouse [5] (setting [14]), > 8100 mg/kg/day. Further, the NOAEL in the series with rat [1] (setting [14]) is ≥ 2640 mg/kg/day; with mouse [2], ≥ 771 mg/kg/day; in the series on rat [3] it was ≥ 1060 mg/kg/day; with rat [4], ≥ 1000 mg/kg/day; in the series with mouse [5] (setting [14]) it was ≥ 8100 mg/kg/day. Further, the LEL in the series on rat [1] (setting [15]) was 48 mg/kg/day; in the series on mouse [2] it was 771 mg/kg/day; in the series with rat [3], 1060 mg/kg/day; with rat [4], 1000 mg/kg/day; in the series with mouse [5] (setting [16]) it was 714 mg/kg/day. Further, the NEL in the series on rat [1] (setting [15]) was < 48 mg/kg/day; in the series with mouse [2], 260 mg/kg/day; with rat [3], 568 mg/kg/day; with rat [4], 600 mg/kg/day; in the series with mouse [5] (setting [16]), < 714 mg/kg/day.
Take `CN1CCC[C@H]1c1cccnc1` [Nicotine]: the LEL in the series with rat [6] was determined as 2.9 mg/kg/day; with mouse [7], 0.5 mg/kg/day; in the series on mouse [8] (group: developmental, developmental / developmental malformation / bone / supernumerary), 12 mg/kg/day; in the series with mouse [8] (setting [18]) it was 12 mg/kg/day. The LOAEL in the series with rat [6] is > 4.4 mg/kg/day; with mouse [7], > 0.5 mg/kg/day; with mouse [8] (setting [17]) it was > 20 mg/kg/day; in the series on mouse [8] (setting [18]) it was > 20 mg/kg/day. Also, the NEL in the series on rat [6] was < 2.9 mg/kg/day; in the series on mouse [7] it was < 0.5 mg/kg/day; in the series on mouse [8] (setting [17]) it was 4 mg/kg/day; with mouse [8] (setting [18]), 4 mg/kg/day. Further, the NOAEL in the series with rat [6] is ≥ 4.4 mg/kg/day; with mouse [7], ≥ 0.5 mg/kg/day; in the series with mouse [8] (setting [17]) it was ≥ 20 mg/kg/day; in the series on mouse [8] (setting [18]), ≥ 20 mg/kg/day.
With `O=C1Nc2ccc(Cl)cc2C(c2ccccc2)=NC1O` (stereo unspecified) [Oxazepam], the lowest-observed-adverse-effect level (LOAEL) is 12 mg/kg/day in the series on mouse [9] (setting [19]); > 1400 mg/kg/day in the series on mouse [10] (setting [21]); > 1810 mg/kg/day in the series on mouse [11]; > 630 mg/kg/day with rat [12] (setting [23]); 270 mg/kg/day in the series on mouse [13]. Further, the no-observed-adverse-effect level (NOAEL) is < 12 mg/kg/day in the series on mouse [9] (setting [19]); ≥ 1400 mg/kg/day in the series on mouse [10] (setting [21]); ≥ 1810 mg/kg/day in the series with mouse [11]; ≥ 630 mg/kg/day in the series on rat [12] (setting [23]); < 270 mg/kg/day in the series with mouse [13]. The LEL stood at 12 mg/kg/day in the series with mouse [9] (setting [20]); 80 mg/kg/day with mouse [10] (setting [22]); 100 mg/kg/day in the series on mouse [11]; 25 mg/kg/day with rat [12] (setting [24]); 270 mg/kg/day in the series with mouse [13]. Moreover, the NEL was < 12 mg/kg/day in the series on mouse [9] (setting [20]); < 80 mg/kg/day in the series with mouse [10] (setting [22]); < 100 mg/kg/day in the series on mouse [11]; < 25 mg/kg/day in the series on rat [12] (setting [24]); < 270 mg/kg/day with mouse [13].
